According to US10821100B2, “Triazolone compounds as mPGES-1 inhibitors” (Glenmark Pharmaceuticals S.A., priority 2012, dated 2020):

Target: T1, Recombinant human mPGES-1 (Homo sapiens, UniProt O14684)
T1 construct: made in house; host or cells: CHO cells (crude microsomal fractions)
T1 sequence (O14684 1-152): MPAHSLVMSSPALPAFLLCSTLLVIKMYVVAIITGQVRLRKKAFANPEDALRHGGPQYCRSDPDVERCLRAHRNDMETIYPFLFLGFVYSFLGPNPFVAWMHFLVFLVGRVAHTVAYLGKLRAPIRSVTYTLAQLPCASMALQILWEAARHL
Test: In-vitro screening of mPGES-1 inhibitors (inhibition of PGE2 formation from PGH2, HTRF detection)
Format: biochemical
Conditions: mPGES-1 enzyme; for inhibition at 1 µM: 1 μM test compound, read-out: Percentage inhibition at 1 μM; for inhibition at 10 µM: 10 μM test compound, read-out: Percentage inhibition at 10 μM; for IC50: class symbols
Outline: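 Crude CHO-expressed microsomes (40–60 μg/mL protein) preincubated 10 min with compound in 0.1 M potassium phosphate/2 mM EDTA containing 2.5 mM GSH, 0.5% DMSO final. PGH2 (15 μM) reacted 1 min, stopped with stannous chloride. PGE2 quantified by HTRF, IC50 from nonlinear regression of percent inhibition.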

| inhibition at 1 µM (crude microsomal fractions) [%] | inhibition at 10 µM (crude microsomal fractions) [%] | IC50 [nM] | inhibition at 3 µM (3 μM test compound, crude microsomal fractions, read-out: Percentage inhibition at 3 μM) [%] | SMILES |
| --- | --- | --- | --- | --- |
| 39.3 | 99.7 | – | – | O=C(NC1(c2ccc(C(F)(F)F)cc2)CC1)c1ccc(-n2nc(-c3c(F)cccc3Cl)[nH]c2=O)cc1 [Example-22, 4-[3-(2-Chloro-6-fluorophenyl)-5-oxo-4,5-dihydro-1H-1,2,4-triazol-1-yl]-N-{1-[4-(trifluoromethyl)phenyl]cyclopropyl}benzamide] |
| 0.55 | 6.63 | – | – | CCn1c(-c2c(Cl)cccc2Cl)nn(-c2ccc(C(=O)Nc3cccc(C(F)(F)F)c3)c(OC)c2)c1=O [Example-70, 4-(3-(2,6-Dichlorophenyl)-4-ethyl-5-oxo-4,5-dihydro-1H-1,2,4-triazol-1-yl)-2-methoxy-N-(3-(trifluoromethyl)phenyl)benzamide] |
| 65 | 95.9 | – | – | CC(C)(C)C(=O)NCc1ccc(Cl)c(-n2nc(-c3ccc(CN4CCCC4)cc3)[nH]c2=O)c1 [Example-151, N-(4-Chloro-3-(4,5-dihydro-5-oxo-3-(4-((pyrrolidin-1-yl)methyl)phenyl)-1,2,4-triazol-1-yl)benzyl)pivalamide] |
| 97.5 | 92.7 | < 50 | – | CC(C)C(=O)NCc1ccc(Cl)c(-c2nn(-c3ccc(C(F)(F)F)cc3)c(=O)[nH]2)c1 [Example-144, N-(4-Chloro-3-(1-(4-(trifluoromethyl)phenyl)-4,5-dihydro-5-oxo-1H-1,2,4-triazol-3-yl)benzyl)isobutyramide] |
| 98.1 | 98.5 | < 50 | – | COc1cc(-n2nc(-c3c(C)cccc3Cl)[nH]c2=O)ccc1C(=O)Nc1cccc(C(F)(F)F)c1 [Example-56, 4-(3-(2-Chloro-6-methylphenyl)-5-oxo-4,5-dihydro-1H-1,2,4-triazol-1-yl)-2-methoxy-N-(3-(trifluoromethyl)phenyl)benzamide] |
| 96.9 | 99.5 | < 50 | – | O=C(NCc1ccc(Cl)c(-c2nn(-c3ccc(C(F)(F)F)cc3)c(=O)[nH]2)c1)c1ccccc1F [Example-104, N-(4-Chloro-3-(5-oxo-1-(4-(trifluoromethyl)phenyl)-4,5-dihydro-1H-1,2,4-triazol-3-yl)benzyl)-2-fluorobenzamide] |
| 99.2 | – | < 50 | 99 | O=C(Nc1cccc(C(F)(F)F)c1)c1ccc(-n2nc(-c3cc(CNC(=O)C4CC4)ccc3Cl)[nH]c2=O)cc1 [Example-72, 4-(3-(2-Chloro-5-(cyclopropanecarboxamidomethyl)phenyl)-5-oxo-4,5-dihydro-1H-1,2,4-triazol-1-yl)-N-(3-(trifluoromethyl)phenyl)benzamide] |
| 86.3 | 90.4 | > 100 | – | O=c1[nH]c(-c2c(F)cccc2Cl)nn1-c1ccc(C#Cc2ccc(C(F)(F)F)cn2)cc1 [Example-13, 5-(2-Chloro-6-fluorophenyl)-2-(4-{[5-(trifluoromethyl)pyridin-2-yl]ethynyl}phenyl)-2,4-dihydro-3H-1,2,4-triazol-3-one] |
| 93.2 | 98.1 | 50 to 100 | – | COc1cc(-c2nn(-c3c(Cl)cccc3Cl)c(=O)[nH]2)ccc1C(=O)Nc1ccc(F)c(C(F)(F)F)c1 [Example-77, 4-(1-(2,6-Dichlorophenyl)-5-oxo-4,5-dihydro-1H-1,2,4-triazol-3-yl)-N-(4-fluoro-3-(trifluoromethyl)phenyl)-2-methoxybenzamide] |
| 87.4 | 84.9 | 50 to 100 | – | COc1cc(-n2nc(-c3c(F)cccc3Cl)[nH]c2=O)ccc1C(=O)Nc1cc(Cl)ccc1C [Example-38, N-(5-Chloro-2-methylphenyl)-4-(3-(2-chloro-6-fluorophenyl)-5-oxo-4,5-dihydro-1H-1,2,4-triazol-1-yl)-2-methoxybenzamide] |
| 99.9 | 99.9 | < 50 | – | O=C(NCc1ccc(Cl)c(-n2nc(-c3ccc(C#Cc4cc(Cl)ccc4Cl)cc3F)[nH]c2=O)c1)C1CC1 [Example-78] |
